Data: paper PMC12722308, “A phase 1 study of orally administered 5-fluoro-2’-deoxycytidine with tetrahydrouridine in patients with refractory solid tumors” (Cancer Chemotherapy and Pharmacology, 2025)
Values joined by “and” are separate entries in the source; they are usually repeats but may differ in a detail not shown here. Equal entries are not always repeated. Where two headings read alike, the source gives them in different places.

Experiments:
[1] = parameters: method as in PMID 21576646; conditions: oral administration, phase 1 study; cited from earlier work
[2] = test system: leukemias and myelodysplastic syndromes; parameters: method as in PMID 23671007; conditions: specific indications of leukemias and myelodysplastic syndromes; cited from earlier work
[3] = Phase 1 dose escalation: adverse events (CTCAE v4.0), DLT, MTD/RP2D; type: in vivo, human; conditions: orally once daily with 160 mg FdCyd on days 1–6 and 8–13 of each 21-day cycle (dose level 8)
Experimental: FdCyd and THU were supplied by the NCI Division of Cancer Treatment and Diagnosis. Patients were administered both drugs orally in 21-day cycles, and dose escalation proceeded according to a traditional 3 + 3 design as per the dose escalation schema shown in Supplementary Table S1. […] Patients maintained a study diary to note any side effects or concurrent medications. The NCI Common Terminology Criteria for Adverse Events version 4.0 was used to grade adverse events. Tumor response was assessed by radiography at baseline and every 2 cycles thereafter and evaluated per RECIST version 1.1 [11]. Following determination of the maximum tolerated dose (MTD)/recommended phase 2 dose (RP2D), an additional 13 patients were enrolled on a RP2D expansion cohort for assessments of pharmacodynamic biomarkers in baseline and on-treatment tumor biopsies.
DLTs were defined as toxicities that were at least possibly related to FdCyd or THU within the first cycle of treatment and met one of the following criteria: grade ≥ 3 non-hematological toxicity (including grade 3 nausea, vomiting, or diarrhea only if refractory to standard supportive care; grade 3 electrolyte toxicities only if unable to be corrected to ≤ grade 1 within 24 h; and tumor pain only if refractory to analgesics); grade 4 thrombocytopenia; or grade 4 neutropenia lasting ≥ 5 days or febrile neutropenia. […]

[4] = Plasma pharmacokinetics by LC-MS/MS; type: in vivo, human; conditions: for THU AUC0-6/Dose / THU Cl/F / THU Cmax/Dose / Tmax / Vd/F / half-life / AUC(0-inf) / Cmax / AUC(0-t) / concentration at 24 h / concentration at 48 h: geom. mean (geom. SD); for Tmax: read-out: THU Tmax; for Vd/F: read-out: THU Vz/F; for half-life: read-out: THU t½ (converted); for AUC(0-inf): read-out: THU AUC0-inf; for Cmax: read-out: THU Cmax; for AUC(0-t): read-out: THU AUC0-6; for concentration at 24 h: read-out: THU Cmin24h; for concentration at 48 h: read-out: THU Cmin48h
Experimental: (§1) Blood specimens for PK analysis were collected on Cycle 1 Day 1 (C1D1) prior to THU administration and then at 15, 30, and 45 min and 1, 2, 3, 4, 5, and 6 h after THU administration, as well as on C1D2 and C1D3 prior to and 2 h after THU administration. Urine specimens for PK analysis were collected on C1D1 prior to treatment and then at every void from 0 to 24 h after THU administration. All specimens for PK analysis were processed and analyzed by LC-MS/MS as described previously, and Phoenix WinNonlin software was used for data analysis.

[5] = cited from earlier work
[6] = Urinary excretion by LC-MS/MS; type: in vivo, human; conditions: geom. mean (geom. SD)
Experimental: as §1

[7] = DL1-DL9: THU 3000 mg oral once daily (n=44)
[8] = DL10-DL11: THU 6000 mg oral twice daily (n=11)
[9] = human, plasma, oral, Total, all dose levels (n=55)
[10] = human, plasma, po, 3000 mg, DL1-DL9: THU 3000 mg oral once daily (n=44)
[11] = human, plasma, po, 6000 mg, DL10-DL11: THU 6000 mg oral twice daily (n=11)
[12] = human, plasma, DL1-DL9: THU 3000 mg oral once daily (n=44)
[13] = human, plasma, DL10-DL11: THU 6000 mg oral twice daily (n=11)

For `Nc1ncn([C@@H]2O[C@H](CO)[C@@H](O)[C@H]2O)c(=O)n1` [azacytidine], the “Most common grade 3/4 toxicity and dose-limiting toxicity” value [1] is listed as “diarrhea” and the Response rates [2] is listed as > 50%.
With `O=C1NC(O)CCN1[C@@H]1O[C@H](CO)[C@@H](O)[C@H]1O` (stereo partly drawn) [THU, tetrahydrouridine] the “Maximum tolerated dose / RP2D, THU dose” value [3] was 3000 mg, the “THU exposure in patients who experienced a DLT vs those who did not” value ([4]; AUC0−6 P = 0.007, Cmax P = 0.005, C24h P = 0.002, C48h P = 0.004) was “significantly higher THU exposures” and the “THU AUC0-6/Dose” value [4, 7] was 2.25 (1.63) µg/L•h / mg. For the same compound, the “THU Cl/F” value [4, 7] was 142 L/h and 142 (1.8) L/h, the “THU Cmax/Dose” value [4, 7] was 505 (1.7) µg/L / g and the “THU AUC0-6/Dose” value [4, 8] was 1.79 (1.37) µg/L•h / mg. For the same compound, the “THU Cl/F” value [4, 8] was 190 (1.6) L/h, the “THU Cmax/Dose” value [4, 8] was 390 (1.4) µg/L / g and the “Increase in THU 24 and 48 h trough concentrations” value ([4]; THU 6000 mg twice daily vs 3000 mg once daily, expected 4-fold) was ~10 fold. The “THU AUC0-6/Dose” value ([4]; Total, all dose levels (n=55)) was 2.15 (1.60) µg/L•h / mg, the “THU Cl/F” value ([4]; Total, all dose levels (n=55)) was 147 (1.7) L/h and the “THU Cmax/Dose” value ([4]; Total, all dose levels (n=55)) was 480 (1.6) µg/L / g. The “THU plasma concentrations for the oral RP2D compared with the intravenous RP2D of 350 mg/m^2 THU” value ([4]; comparison with ref 8) was 9–13 % lower, the Tmax [4, 9] was ~3 h and the Vd/F [4, 9] was 1830 L. For the same compound, the half-life [4, 9] was 8.7 h, the bioavailability ([4]; human, plasma, oral, from previous clearance (43 mL/min/m^2) vs current Cl/F (142 L/h), read-out: THU bioavailability in the current study) was ~3% and the AUC(0-inf) [4, 10] was 21100 ng·h/mL. For the same compound, the Cmax [4, 10] was 1520 ng/mL, the Tmax [4, 10] was 3 h and the Vd/F [4, 10] was 1810 L. The half-life [4, 10] was 8.8 h, the AUC(0-inf) [4, 11] was 31600 ng·h/mL and the Cmax [4, 11] was 2340 ng/mL. The Tmax [4, 11] was 3.2 h, the Vd/F [4, 11] was 2040 L and the half-life ([4]; human, plasma, po, 6000 mg, DL10-DL11: THU 6000 mg oral twice daily, half-life determined for only 6 patients) was 7.4 h. It also gave an AUC(0-t) [4, 12] of 6750 ng·h/mL, a concentration at 24 h [4, 12] of 260 ng/mL and a concentration at 48 h [4, 12] of 330 ng/mL. It also gave an AUC(0-t) [4, 13] of 10800 ng·h/mL, a concentration at 24 h [4, 13] of 2520 ng/mL and a concentration at 48 h [4, 13] of 3170 ng/mL. For the same compound, the “THU bioavailability, previously established” value [5] was 4.1%, the “THU clearance, previous values” ([5]; intravenous THU, ref previous clearance values) was 43 mL/min/m^2 and the “THU urinary excretion over 0-24 hours of day 1” value ([6]; All FdCyd doses + THU 3000 mg, N=42) was 2.1 (2.0) % dose. The “THU urinary excretion over 0-24 hours of day 1” value ([6]; All FdCyd doses + THU 6000 mg, N=10) was 1.2 (2.5) % dose, the “THU urinary excretion over 0-24 hours of day 1” value ([6]; DL1: FdCyd 30 mg + THU 3000 mg, N=3) was 2.9 (2.0) % dose and the “THU urinary excretion over 0-24 hours of day 1” value ([6]; DL2: FdCyd 60 mg + THU 3000 mg, N=3) was 2.8 (1.6) % dose. The “THU urinary excretion over 0-24 hours of day 1” value ([6]; DL3: FdCyd 90 mg + THU 3000 mg, N=3) was 2.1 (1.4) % dose, the “THU urinary excretion over 0-24 hours of day 1” value ([6]; DL4: FdCyd 120 mg + THU 3000 mg, N=3) was 1.1 (4.8) % dose and the “THU urinary excretion over 0-24 hours of day 1” value ([6]; DL5-9: FdCyd 160 mg + THU 3000 mg, N=30) was 2.1 (1.8) % dose. The “THU urinary excretion over 0-24 hours of day 1” value ([6]; DL10: FdCyd 60 mg + THU 6000 mg, N=7) was 1.1 (2.9) % dose, the “THU urinary excretion over 0-24 hours of day 1” value ([6]; DL11: FdCyd 80 mg + THU 6000 mg, N=3) was 1.6 (1.7) % dose and the “THU urinary excretion over 0-24 hours of day 1” value ([6]; Total, all dose levels, N=52) was 1.9 (2.1) % dose.
For `Nc1ncn([C@H]2C[C@H](O)[C@@H](CO)O2)c(=O)n1` [decitabine, 5-aza-2’deoxycytidine], the Response rates [2] is given as > 50%.
